Results taken from US10947223B2, “Substituted oxazines as beta-secretase inhibitors” (AMGEN INC., priority 2016, dated 2021).

Key:
Aβ peptide [1] = details: oral dose of 95 mg once daily; cited from earlier work
[2] = in vivo; cited from earlier work
[3] = phase I clinical trials; cited from earlier work
Aβ peptide [4] = details: sustained and dose-dependent manner; cited from earlier work
human recombinant BACE2 = human recombinant BACE2 (Homo sapiens (Human), UniProt Q9Y5Z0); experiment: In vitro enzymatic BACE2 FRET assay; type: biochemical; details: pH 4.5, read-out: BACE2 Enzyme IC50
Sequence of human recombinant BACE2 (Q9Y5Z0 63-518): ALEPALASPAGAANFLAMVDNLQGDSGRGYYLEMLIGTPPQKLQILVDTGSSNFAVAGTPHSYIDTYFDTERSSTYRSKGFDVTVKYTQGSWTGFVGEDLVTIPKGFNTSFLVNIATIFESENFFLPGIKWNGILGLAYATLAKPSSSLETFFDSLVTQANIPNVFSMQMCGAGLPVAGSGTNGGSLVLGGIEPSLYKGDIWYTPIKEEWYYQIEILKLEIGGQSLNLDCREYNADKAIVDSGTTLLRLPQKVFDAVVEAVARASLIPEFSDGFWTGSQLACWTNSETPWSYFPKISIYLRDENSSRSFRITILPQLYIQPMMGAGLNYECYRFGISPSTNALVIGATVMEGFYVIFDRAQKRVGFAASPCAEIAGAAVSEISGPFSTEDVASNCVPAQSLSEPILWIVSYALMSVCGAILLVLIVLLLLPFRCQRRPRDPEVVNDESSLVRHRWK
Method: (§1) In Vitro Enzymatic BACE1 and BACE2 FRET (Fluorescence Resonance Energy Transfer) Assays
(§2) The cDNAs for both human recombinant BACE1 and 2 with C-terminal 6-His Tags were cloned into transient protein expression vectors, which were subsequently transfected into mammalian cell lines. These recombinant proteins were further purified using Ni-NTA affinity chromatography (Qiagen). The assay buffer used in these screens was 0.05 M acetate, pH 4.5, 8% DMSO final, 100 μM genapol (which is a nonionic detergent, below its Critical Micelle Concentration). The β-secretase enzyme (0.02 nM for BACE1 and 0.64 nM for BACE2), which was pre-incubated for one hour with the test compound, typically in about 1 uL of DMSO according to a serial dilution, was added thereto. The assay was effectively started by the addition of FRET substrate (50 nM) and the combination was incubated for one hour. The FRET assay was terminated by the addition of tris buffer, which raised the pH to neutrality, and the fluorescence was determined. The FRET substrate was a peptide with commercially available fluorophore and quencher, on opposite sides of the BACE cleavage site. The specific FRET substrate used in this assay was made by Amgen in-house. Commercially available FRET substrates, for example, the FRET substrate offered with the BACE1 FRET Assay Kit sold by ThermoFisher Scientific (Catalog Number P2985), may be used in this assay with the appropriate modifications, which are within the purview of the ability of a person with ordinary skill in the art. Proteolytic cleavage of the FRET substrate released quenching of fluorescence (excitation 488 nm and emission 590 nm).

BACE1 [5] = target: T1, BACE1 (Homo sapiens (Human), UniProt P56817); experiment: In vitro enzymatic BACE1 FRET assay; type: biochemical; details: pH 4.5, read-out: BACE1 Enzyme IC50
Method: as §1, §2
Target sequence in this assay (P56817 46-501): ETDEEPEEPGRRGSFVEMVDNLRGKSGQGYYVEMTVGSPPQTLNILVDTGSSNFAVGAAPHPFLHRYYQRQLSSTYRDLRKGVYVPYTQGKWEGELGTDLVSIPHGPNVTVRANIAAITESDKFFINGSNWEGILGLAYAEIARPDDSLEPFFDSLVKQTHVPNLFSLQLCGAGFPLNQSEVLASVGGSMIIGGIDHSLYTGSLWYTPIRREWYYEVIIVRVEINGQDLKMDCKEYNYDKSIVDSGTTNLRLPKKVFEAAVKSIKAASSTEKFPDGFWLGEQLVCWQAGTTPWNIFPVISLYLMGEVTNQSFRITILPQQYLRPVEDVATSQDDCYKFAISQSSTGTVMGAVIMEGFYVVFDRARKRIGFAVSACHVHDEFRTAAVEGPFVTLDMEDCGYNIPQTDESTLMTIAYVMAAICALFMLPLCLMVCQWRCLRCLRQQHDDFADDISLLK

Recombinant CatD = Recombinant CatD (Homo sapiens (Human), UniProt P07339); experiment: In vitro enzymatic Cathepsin D (CatD) FRET assay; type: biochemical; details: pH 3.5, read-out: CatD Enzyme IC50
Sequence of Recombinant CatD (P07339 65-412): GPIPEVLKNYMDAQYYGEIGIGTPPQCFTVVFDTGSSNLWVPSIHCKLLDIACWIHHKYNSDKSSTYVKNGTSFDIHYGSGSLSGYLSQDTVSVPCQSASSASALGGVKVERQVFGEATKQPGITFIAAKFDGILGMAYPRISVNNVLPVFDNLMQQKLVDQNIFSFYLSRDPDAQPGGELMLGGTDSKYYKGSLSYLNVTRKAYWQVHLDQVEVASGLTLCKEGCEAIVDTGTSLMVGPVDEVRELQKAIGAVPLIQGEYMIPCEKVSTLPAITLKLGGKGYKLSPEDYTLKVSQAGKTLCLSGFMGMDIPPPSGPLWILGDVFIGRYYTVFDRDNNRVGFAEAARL
Method: In Vitro Enzymatic Cathepsin D (CatD) FRET Assay
Recombinant CatD was expressed in CHO cells. The assay buffer for CatD was 0.05 M citrate pH 3.5, 10% DMSO final, 5 mM CHAPS. The CatD enzyme (9 nM) was pre-incubated for one hour with inhibitors, typically in about 1 uL of DMSO according to a serial dilution, is added thereto. The assays was effectively started by the addition of different FRET substrates (20 nM for CatD) and the combination was incubated for one hour. The FRET assay was terminated with by addition of tris buffer, which raises the pH to neutrality, and the fluorescence was determined. The FRET substrate was a peptide with commercially available fluorophore and quencher, on opposite sides of the CatD cleavage site. The CatD substrate peptide sequence was based on sequence #1 of Table 1 from Gulnik et al., FEBS Lett. 413(2):379-384 (1997). Proteolytic cleavage of the FRET substrate released quenching of fluorescence (CatD excitation 500 nm and emission 580 nm).
The in vitro CatD FRET assay data for each of the Examples is provided in Table 2, conducted by the first procedure described above. […] Thus, with this surprising selectivity profile, the compounds provided herein are believed to minimize, reduce or completely eliminate any risk of retinal atrophy and abnormal development of the eye and of the retinal pigmented epithelium as it relates to the normal function and activity of CatD.

BACE1 [6] = target: T1, BACE1; experiment: In vitro BACE1 cell-based assay (Aβ40 in conditioned medium, HTRF); details: Aβ40 in conditioned medium of cells expressing APP, 24 h
Method: In Vitro BACE1 Cell-Based Assay
The cell-based assay measures inhibition or reduction of Aβ40 in conditioned medium of test compound treated cells expressing amyloid precursor protein. Cells stably expressing Amyloid Precursor Protein (APP) were plated at a density of 45K cells/well in 384 well plates (Corning/BioCoat 354663). The test compounds were then added to cells in 22-point dose response concentrations with the starting concentration being 62.5 μM. The compounds were diluted from stock solutions in DMSO and the final DMSO concentration of the test compounds on cells was 0.625%. The cells were cultivated overnight at 37° C. and 5% CO2 in DMEM supplemented with 10% FBS. After 24 h of incubation with the test compounds, the conditioned media was collected and the Aβ40 levels were determined using HTRF (Homogeneous Time Resolved Fluorescence). The IC50 of the compound was calculated from the percent of control or percent inhibition of Aβ 40 as a function of the concentration of the test compound.
The HTRF to detect Aβ40 was performed in 384 well plates (Costar 3658). The antibody pair that were used to detect Aβ 40 from cell supernatants were ConfAb40 antibody (Amgen in-house) and biotinylated 6E10 (BIOLEGEND). As an alternative to ConfAb40, a commercially available antibody, Anti-beta Amyloid 1-40 antibody [BDI350] from Abcam, Cambridge, Mass. 02139-1517 (Product code: ab20068), may be used in this assay. The concentrations were 0.35 μg/mL of ConfAb40 antibody and 1.33 μg/mL of 6E10-biotinylated antibody, as well as 4.5 μg/mL of Streptavidin Allophycocyanin Conjugate (ThermoFisher Scientific) in HTRF Buffer ([…], 1% BSA, 0.5% Tween 20).
The conditioned media was incubated with above antibodies and Streptavidin Allophycocyanin Conjugate for 30-60 minutes at 23° C. The final readout was performed on Envision from PerkinElmer.
Target sequence in this assay (P56817 46-501, species assumed): as the sequence (P56817 46-501) above

[7] = system: pigment epithelium of the rat's eye; details: higher compound dose given for three months; cited from earlier work
[8] = repeated doses up to 200 mg, phase I clinical trial; cited from earlier work
Aβ peptide [9] = details: nonhuman primates; cited from earlier work

| IC50 (human recombinant BACE2) [nM] | IC50 (BACE1 [5]) [nM] | IC50 (Recombinant CatD) [µM] | IC50 (BACE1 [6]) [nM] | Structure (SMILES) | also measured |
| --- | --- | --- | --- | --- | --- |
|  |  |  |  | C[C@@]1(c2cc(NC(=O)c3ccc(C#N)cn3)ccc2F)C=CSC(N)=N1 [JNJ-54861911] | Aβ peptide reduction in CSF (Aβ peptide [1]): up to 95%; ability to cross the blood-brain barrier [2]: demonstrated an ability to cross the blood-brain barrier |
|  |  |  |  | CN1C(=N)N[C@](C)(c2cc(NC(=O)c3ccc(F)cn3)ccc2F)CS1(=O)=O [MK-8931] | safety profile [3]: excellent safety profile with no immediately noticeable side effects; CSF Aβ peptide concentrations (Aβ peptide [4]): significantly reduced CSF Aβ peptide concentrations |
| 375 | 50 | 82.5 | 112 | C#CCOc1cnc(/C(F)=C/c2ccc(F)c([C@]3(C)CO[C@@](C)(C(F)(F)F)C(N)=N3)c2)cn1 [Example 107, (2R,5R)-5-(2-fluoro-5-((Z)-2-fluoro-2-(5-(prop-2-yn-1-yloxy)pyrazin-2-yl)vinyl)phenyl)-2,5-dimethyl-2-(trifluoromethyl)-5,6-dihydro-2H-1,4-oxazin-3-amine] |  |
|  |  |  |  | C[C@@]1(c2cc(-c3cncnc3)c(F)cc2F)CCSC(N)=N1 [LY 2811376] | eye toxicity finding [7]: damaged the pigment epithelium of the rat's eye |
| 1590 | 666 | 88.4 | 4130 | C[C@@]1(c2cc(/C=C(\F)c3cnc(OCC(F)(F)C(F)F)cn3)ccc2F)CO[C@@](C)(C(F)(F)F)C(N)=N1 [Example 106, (2R,5R)-5-(2-fluoro-5-((Z)-2-fluoro-2-(5-(2,2,3,3-tetrafluoropropoxy)pyrazin-2-yl)vinyl)phenyl)-2,5-dimethyl-2-(trifluoromethyl)-5,6-dihydro-2H-1,4-oxazin-3-amine] |  |
|  |  |  |  | C[C@H]1OC[C@]2(c3cc(NC(=O)c4cnc(C(F)F)cn4)ccc3F)N=C(N)SC[C@H]12 [Example E2609] | clinical safety [8]: did not show clinical significant safety concerns; reduction in Aβ peptide levels in the CSF and plasma (Aβ peptide [9]): significant reduction |

| Structure (SMILES) | IC50 (human recombinant BACE2) [nM] | IC50 (BACE1 [5]) [nM] | IC50 (Recombinant CatD) [µM] | IC50 (BACE1 [6]) [nM] | also measured |
| --- | --- | --- | --- | --- | --- |
| C[C@@]1(c2cc(/C=C(\F)c3ccc(Cl)cn3)ccc2F)CO[C@@](C)(C(F)(F)F)C(N)=N1 [Example 103, (2R,5R)-5-(5-((Z)-2-(5-chloropyridin-2-yl)-2-fluorovinyl)-2-fluorophenyl)-2,5-dimethyl-2-(trifluoromethyl)-5,6-dihydro-2H-1,4-oxazin-3-amine] | 17 | 65 | 19.2 | 693 |  |
